pEC50: −log10 of the molar value.
The compounds below were run against T1, REV-ERBα LBD (human; residues 281-614 Δ324-422) (Homo sapiens, UniProt P20393, DEL324-422) (assay: TR-FRET corepressor interaction assay (REV-ERBα LBD, FITC-SMRT peptide)). Conditions: Table 2, read-out: REVERBα agonism (EC50 class, FRET assay).
T1 construct: 6×Histag-REV-ERBα LBD (human; residues 281-614 Δ324-422); made in house; host or cells: Escherichia coli
Assay type: biochemical
Outline: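 Compound serial dilutions (in DMSO, triplicate) incubated 2 h at 4 °C; Tb donor excited at 340 nm, emission read at 495 nm and FITC acceptor at 520 nm. TR-FRET ratio (520/495 nm) plotted against ligand concentration and fitted to a sigmoidal dose-response curve.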

T1 sequence (P20393 with tags, fused parts or gaps DEL324-422): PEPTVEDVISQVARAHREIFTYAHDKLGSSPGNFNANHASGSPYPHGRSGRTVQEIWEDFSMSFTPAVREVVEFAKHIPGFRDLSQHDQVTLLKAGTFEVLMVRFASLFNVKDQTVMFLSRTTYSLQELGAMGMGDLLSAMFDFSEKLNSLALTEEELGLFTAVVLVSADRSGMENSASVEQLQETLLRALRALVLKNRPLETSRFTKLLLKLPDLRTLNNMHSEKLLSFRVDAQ
T1 sequence (Q9Y618 2335-2356 partner limits assumed): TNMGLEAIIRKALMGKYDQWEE

| SMILES | pEC50 |
| --- | --- |
| CC(C)(C)Cn1cc(CCNS(=O)(=O)C2CC2)c2ccc(-c3cccc(F)c3C(F)(F)F)cc21 [Example 393, N-(2-(6-(3-fluoro-2-(trifluoromethyl)phenyl)-1-neopentyl-1H-indol-3-yl)ethyl)cyclopropanesulfonamide] | 5.52 to 6.30 |
| CC(C)(C)Cn1cc(CCNS(=O)(=O)C2CC2)c2ccc(-c3cccc(C(F)(F)F)c3C#N)cc21 [Example 399, N-(2-(6-(2-cyano-3-(trifluoromethyl)phenyl)-1-neopentyl-1H-indol-3-yl)ethyl)cyclopropanesulfonamide] | < 5.52 |
| Cc1ccc(-c2ccc3c(c2)c(CC(C)(C)C)cn3CCNS(=O)(=O)C2CC2)c(C(F)(F)F)c1 [Example 402, N-(2-(5-(4-methyl-2-(trifluoromethyl)phenyl)-3-neopentyl-1H-indol-1-yl)ethyl)cyclopropanesulfonamide] | > 6.30 |
| CC(CO)(CCl)Cn1cc([C@H](NS(=O)(=O)C2CC2)C(F)(F)F)c2cc(F)c(-c3ccccc3C(F)(F)F)cc21 (stereo partly drawn) [Example 404, N-[(1S)-1-[1-[2-(chloromethyl)-3-hydroxy-2-methyl-propyl]-5-fluoro-6-[2-(trifluoromethyl)phenyl]indol-3-yl]-2,2,2-trifluoro-ethyl]cyclopropanesulfonamide] | 5.52 to 6.30 |
| CC(C)(C)Cn1cc(CC2(NS(=O)(=O)C3CC3)CC2)c2ccc(-c3ccccc3C(F)(F)F)cc21 [Example 406, N-(1-((1-neopentyl-6-(2-(trifluoromethyl)phenyl)-1H-indol-3-yl)methyl)cyclopropyl)cyclopropanesulfonamide] | < 5.52 |
| CC(C)Cn1cc(C(CS(C)(=O)=O)C(F)(F)F)c2ccc(-c3ccccc3C(F)(F)F)cc21 (centres unmarked) [Example 407, 1-isobutyl-3-(1,1,1-trifluoro-3-(methylsulfonyl)propan-2-yl)-6-(2-(trifluoromethyl)phenyl)-1H-indole] | < 5.52 |
| Cc1ccc(-c2ccc3c(CCS(=O)(=O)C4CC4)cn(CC(C)(C)C)c3c2)c(C(F)(F)F)c1 [Example 408, 3-(2-(cyclopropylsulfonyl)ethyl)-6-(4-methyl-2-(trifluoromethyl)phenyl)-1-neopentyl-1H-indole] | > 6.30 |
| CC(C)Cn1cc([C@H](NS(=O)(=O)C2CC2)C(F)(F)F)c2ccc(-c3ccccc3C(F)(F)F)cc21 [Example 410, (S)—N-(2,2,2-trifluoro-1-(1-isobutyl-6-(2-(trifluoromethyl)phenyl)-1H-indol-3-yl)ethyl)cyclopropanesulfonamide] | > 6.30 |
| CC(C)(C)Cn1cc([C@H](NS(=O)(=O)C2CCC2)C(F)(F)F)c2ccc(-c3c(F)cccc3Cl)cc21 [Example 411, (S)—N-(1-(6-(2-chloro-6-fluorophenyl)-1-neopentyl-1H-indol-3-yl)-2,2,2-trifluoroethyl)cyclobutanesulfonamide] | > 6.30 |
| COC(C)(C)Cn1cc([C@H](NS(=O)(=O)C2CCC2)C(F)(F)F)c2ccc(-c3ccccc3C(F)(F)F)nc21 [Example 413, (S)—N-(2,2,2-trifluoro-1-(1-(2-methoxy-2-methylpropyl)-6-(2-(trifluoromethyl)phenyl)-1H-pyrrolo[2,3-b]pyridin-3-yl)ethyl)cyclobutanesulfonamide] | > 6.30 |
| N#CC1(Cn2cc([C@H](NS(=O)(=O)C3CCC3)C(F)(F)F)c3ccc(-c4ccccc4C(F)(F)F)nc32)CC1 [Example 414, (S)—N-(1-(1-((1-cyanocyclopropyl)methyl)-6-(2-(trifluoromethyl)phenyl)-1H-pyrrolo[2,3-b]pyridin-3-yl)-2,2,2-trifluoroethyl)cyclobutanesulfonamide] | > 6.30 |
| CC(C)c1ccc2c([C@H](NS(=O)(=O)C3CCC3)C(F)(F)F)cn(CC(C)(C)C)c2c1 [Example 415, (S)—N-(2,2,2-trifluoro-1-(6-isopropyl-1-neopentyl-1H-indol-3-yl)ethyl)cyclobutanesulfonamide] | 5.52 to 6.30 |

The next lines start with the values.

| pEC50 | SMILES |
| --- | --- |
| > 6.30 | CC(C)(C)Cn1cc([C@H](NS(=O)(=O)C2CC2)C(F)(F)F)c2ccc(-c3c(C#N)cccc3C(F)(F)F)cc21 [Example 389, (S)—N-(1-(6-(2-cyano-6-(trifluoromethyl)phenyl)-1-neopentyl-1H-indol-3-yl)-2,2,2-trifluoroethyl)cyclopropanesulfonamide] |
| > 6.30 | Cc1cccc(C#N)c1-c1ccc2c([C@H](NS(=O)(=O)C3CC3)C(F)(F)F)cn(CC(C)(C)C)c2c1 [Example 390, (S)—N-(1-(6-(2-cyano-6-methylphenyl)-1-neopentyl-1H-indol-3-yl)-2,2,2-trifluoroethyl)cyclopropanesulfonamide] |
| > 6.30 | COC(C)(C)Cn1cc([C@H](NS(=O)(=O)C2CCC2)C(F)(F)F)c2cc(F)c(-c3ccccc3C(F)(F)F)cc21 [Example 391, N-[(1S)-2,2,2-trifluoro-1-[5-fluoro-1-(2-methoxy-2-methyl-propyl)-6-[2-(trifluoromethyl)phenyl]indol-3-yl]ethyl]cyclobutanesulfonamide] |
| > 6.30 | N#CC1(Cn2cc([C@H](NS(=O)(=O)C3CCC3)C(F)(F)F)c3cc(F)c(-c4ccccc4C(F)(F)F)cc32)CC1 [Example 392, [(1S)-1-[1-[(1-cyanocyclopropyl)methyl]-5-fluoro-6-[2-(trifluoromethyl)phenyl]indol-3-yl]-2,2,2-trifluoro-ethyl]cyclobutanesulfonamide] |
| > 6.30 | CC(C)(C)Cn1cc(CCNS(=O)(=O)C2CC2)c2ccc(-c3ccc(Cl)cc3C(F)(F)F)cc21 [Example 394, N-(2-(6-(4-chloro-2-(trifluoromethyl)phenyl)-1-neopentyl-1H-indol-3-yl)ethyl)cyclopropanesulfonamide] |
| > 6.30 | CC(C)(C)Cn1cc(CCNS(=O)(=O)C2CC2)c2ccc(-c3ccc(F)cc3C(F)(F)F)cc21 [Example 395, N-(2-(6-(4-fluoro-2-(trifluoromethyl)phenyl)-1-neopentyl-1H-indol-3-yl)ethyl)cyclopropanesulfonamide] |
| > 6.30 | CC(C)(C)Cn1cc(CCNS(=O)(=O)C2CC2)c2ccc(-c3ccc(C(F)(F)F)cc3Cl)cc21 [Example 396, N-(2-(6-(2-chloro-4-(trifluoromethyl)phenyl)-1-neopentyl-1H-indol-3-yl)ethyl)cyclopropanesulfonamide] |
| > 6.30 | CC(C)(C)Cn1cc(CCNS(=O)(=O)C2CC2)c2ccc(-c3ccc(Cl)cc3Cl)cc21 [Example 397, N-(2-(6-(2,4-dichlorophenyl)-1-neopentyl-1H-indol-3-yl)ethyl)cyclopropanesulfonamide] |
| > 6.30 | Cc1ccc(-c2ccc3c(CCNS(=O)(=O)C4CC4)cn(CC(C)(C)C)c3c2)c(C(F)(F)F)c1 [Example 398, N-(2-(6-(4-methyl-2-(trifluoromethyl)phenyl)-1-neopentyl-1H-indol-3-yl)ethyl)cyclopropanesulfonamide] |
| > 6.30 | CC(C)(C)Cn1cc(CCNS(=O)(=O)C2CC2)c2ccc(-c3ccc(C(F)(F)F)cc3C#N)cc21 [Example 400, N-(2-(6-(2-cyano-4-(trifluoromethyl)phenyl)-1-neopentyl-1H-indol-3-yl)ethyl)cyclopropanesulfonamide] |
| > 6.30 | CC(C)(C)Cc1cn(CCNS(=O)(=O)C2CC2)c2ccc(-c3ccc(Cl)cc3C#N)cc12 [Example 401, N-(2-(5-(4-chloro-2-cyanophenyl)-3-neopentyl-1H-indol-1-yl)ethyl)cyclopropanesulfonamide] |

Reference: US20230339886A1 (University of Florida Research Foundation, Incorporated, priority 2020, published 2023)
